Data taken from patent EP0011400A1, “An aminoglycosidic antibiotic salt” (priority 1978, dated 1980).
Where a name gives a salt, the structure may show the parent alone.

Assays:
Male Hartley guinea pigs [1] = assay: Example 8: toxicity of tobramycin and bekanamycin salts on intramuscular injection (deaths, pinna reflex); assay type: in vivo; conditions: for Pinna Reflex Lost: * including dead cases; for Number died/ Number tested: guinea pigs, intramuscular
Procedure: The second group was injected with a solution of tobramycin sulfate in water for injection in an equal dose. […] After injection with the final dose, the pinna reflex of each subject guinea pig to a pure tone having a frequency of 15,000 Hz was determined. […] Both group were then subjected to determination of their pinna reflex to a 15,000^-Hz pure tone.

[2] = Solubility of the salt powder in water and organic solvents; assay type: physicochemical
Male Hartley guinea pigs [3] = assay: Example 6: toxicity of gentamicin salts on intramuscular injection for 14 days (deaths, pinna reflex, BUN, CRE); assay type: in vivo; conditions: 100 mg (as a free base)/kg/day; for CRE: creatine in sera; for CRE / BUN: 24 hours after the pinna reflex determination; for Number died/ Number tested: 14 consecutive days; for BUN: sera
Procedure: The amount of the test compounds administered was calculated on the basis of the free base (i.e., free gentamicin). […] The second group was injected with an equal dose of a solution of gentamicin sulfate in water for injection. […] After injection with the final dose, each group was subjected to a pure tone having a frequency of 20,000 Hz to determine the pinna reflex of the subject guinea pigs. Twenty-four hours after the determination, the levels of blood urea nitrogen (BUN) and creatine (CRE) in sera were measured.

Male Hartley guinea pigs [4] = assay: Example 9: toxicity of kanamycin A salts on intramuscular injection for 14 days (deaths, pinna reflex, BUN); assay type: in vivo; conditions: 400 mg (as a free base)/kg/day, 14 consecutive days
Procedure: The second group was injected with a solution of kanamycin A sulfate in water for injection in an equal dose. The third group was injected with a solution of a mixture of kanamycin A sulfate and potassium salt of D-glucaro-1,5-lactam (in a molar ratio of […]) in water for injection in an eaual dose.

[5] = tested on: Pseudomonas aeruginosa E-2; assay: Example 10: survival of mice infected intraperitoneally; assay type: in vivo; conditions: ICR-JCL mice, intramuscular; for Percentage Survival (%) Dosage 0.0625 mg: 0.0625 mg (as a free base)/mouse; for Percentage Survival (%) Dosage 0.0625 mg / Percentage Survival (%) Dosage 0.25 mg / Percentage Survival (%) Dosage 1 mg: one week after the injection; for Percentage Survival (%) Dosage 1 mg: 1 mg (as a free base)/mouse; for ED50: Pseudomonas aeruginosa, E2, im, 168 h, calculated by Ritchfield-Wilcoxon technique, the two values not significantly different
Procedure: The second group was injected with a solutio of dibekacin sulfate in sterile physiological saline solution in the above indicated doses. […] The percentage survival of each group was checked one week after the injection.

Male Hartley guinea pigs [6] = assay: Example 7: toxicity of dibekacin salts on intramuscular injection for 21 days (deaths, pinna reflex, BUN); assay type: in vivo; conditions: for Number of guinea pigs which lost pinna reflex 10days / Number of guinea pigs which lost pinna reflex 14days / Number of guinea pigs which lost pinna reflex 17days / Number of guinea pigs which lost pinna reflex 21days: 180 mg (as a free base)/kg/day intramuscular, 20,000 Hz pure tone; for Number of guinea pigs which lost pinna reflex 21days: * including dead cases; for Number died/ Number tested: guinea pigs, intramuscular, 21 consecutive days; for Number died/ Number tested / BUN: 180 mg (as a free base)/kg/day; for BUN: sera, 24 hours after final dose; for Number of guinea pigs which lost pinna reflex 21days / BUN: 21 days
Procedure: The second group was injected with an equal dose of a solution of dibekacin sulfate in water for injection. […] During the intramuscu]ar injection, the pinna reflex of each subject guinea pig to a pure tone having a frequency of 20,000 Hz was determined. Twenty-four hours after the injection with the final dose, the level of BUN in sera was measured.

Male Hartley guinea pigs [7] = assay: Example 11: pinna reflex after intramuscular injection of gentamicin salts for 21 days; conditions: 80 mg (as a free base)/kg/day, 20,000 Hz pure tone after final dose
Procedure: Male Hartley guinea pigs weighing 300 g on average were used as the test animals in three groups each consisting of 6 guinea pigs which were subjected to intramuscular injection of the following substances for 21 consecutive days. The first group was injected with a solution of the salt of gentamicin and D-glucaro-1,5-lactam in water for injection in a dose of 80 mg (as a free base)/kg/day. The second group was injected with a solution of gentamicin sulfate in water for injection in an equal dose. The third group was a control which was injected with distilled water.

[8] = pH of an aqueous solution of the salt; assay type: physicochemical
[9] = 250 mg (as a free base)/kg/day, 14 days, 15,000 Hz pure tone
[10] = 250 mg (as a free base)/kg/day, 14 consecutive days
[11] = guinea pigs, intramuscular, 14 days, 20,000 Hz pure tone after final dose
[12] = 120 mg (as a free base)/kg/day, 16 days, 15,000 Hz pure tone after final dose

Compound: NC[C@H]1O[C@H](O[C@H]2[C@H](O)[C@@H](O[C@H]3O[C@H](CO)[C@@H](O)[C@H](N)[C@H]3O)[C@H](N)C[C@@H]2N)[C@H](N)[C@@H](O)[C@@H]1O [Glucarolactam salt of bekanamycin, Salt of bekanamycin and D-glucaro-1,5-lactam]
- Pinna Reflex Dull (Male Hartley guinea pigs [1]; [9]): 3/6
- Pinna Reflex Lost (Male Hartley guinea pigs [1]; [9]): 3/6
- Number died/ Number tested (Male Hartley guinea pigs [1]; [10]): 0/6
- solubility in ethanol, acetone, ethyl acetate and chloroform [2]: very slightly soluble
- solubility in water [2]: freely soluble

Compound: NC[C@H]1O[C@H](O[C@H]2[C@H](O)[C@@H](O[C@H]3O[C@H](CO)[C@@H](O)[C@H](N)[C@H]3O)[C@H](N)C[C@@H]2N)[C@H](N)[C@@H](O)[C@@H]1O [Bcanamycin sulfate, bekanamycin sulfate]
- Pinna Reflex Dull (Male Hartley guinea pigs [1]; [9]): 1/4
- Pinna Reflex Lost (Male Hartley guinea pigs [1]; [9]): 3/4*
- Number died/ Number tested (Male Hartley guinea pigs [1]; [10]): 2/6

Compound: gentamicin sulfate [reference compound]
- CRE (Male Hartley guinea pigs [3]; 14 days): 1.80±0.57
- Number died/ Number tested (Male Hartley guinea pigs [3]; guinea pigs, intramuscular): 7/9
- Pinna Reflex Dull (Male Hartley guinea pigs [3]; [11]): 2/5
- Pinna Reflex Lost (Male Hartley guinea pigs [3]; [11]): 3/5
- BUN (Male Hartley guinea pigs [3]; 14 days): 92.3 ± 50.42 mg/dL

Compound: NC[C@H]1O[C@H](O[C@H]2[C@H](O)[C@@H](O[C@H]3O[C@H](CO)[C@@H](O)[C@H](N)[C@H]3O)[C@H](N)C[C@@H]2N)[C@H](O)[C@@H](O)[C@@H]1O [Kanamycin sulfate, kanamycin A sulfate, reference compound]
- Number died/ Number tested (Male Hartley guinea pigs [4]): 0/6

Compound: NC[C@@H]1CC[C@@H](N)[C@@H](O[C@H]2[C@H](O)[C@@H](O[C@H]3O[C@H](CO)[C@@H](O)[C@H](N)[C@H]3O)[C@H](N)C[C@@H]2N)O1 [Glucarolactam salt of dibekacin, Salt of dibekacin and D-glucaro-1,5-lactam]
- solubility in ethanol, acetone, ethyl acetate and chloroform [2]: very slightly soluble
- solubility in methanol [2]: sparingly soluble
- solubility in water [2]: freely soluble
- Percentage Survival (%) Dosage 0.0625 mg [5]: 0%
- Percentage Survival (%) Dosage 0.25 mg [5]: 20%
- Percentage Survival (%) Dosage 1 mg [5]: 100%
- ED50 [5]: 19.1 mg/kg
- Number of guinea pigs which lost pinna reflex 10days (Male Hartley guinea pigs [6]): 0/6
- Number of guinea pigs which lost pinna reflex 14days (Male Hartley guinea pigs [6]): 0/6
- Number of guinea pigs which lost pinna reflex 17days (Male Hartley guinea pigs [6]): 0/6
- Number of guinea pigs which lost pinna reflex 21days (Male Hartley guinea pigs [6]): 3/6
- Number died/ Number tested (Male Hartley guinea pigs [6]): 0/6
- BUN (Male Hartley guinea pigs [6]): 35.7 ± 13.3 mg/dL

Compound: NC[C@H]1O[C@H](O[C@H]2[C@H](O)[C@@H](O[C@H]3O[C@H](CO)[C@@H](O)[C@H](N)[C@H]3O)[C@H](N)C[C@@H]2N)[C@H](O)[C@@H](O)[C@@H]1O [Glucarolactam salt of kanamycin, Salt of kanamycin A and D-glucaro-1,5-lactam]
- solubility in ethanol, acetone, ethyl acetate and chloroform [2]: very slightly soluble
- solubility in water [2]: freely soluble
- Number died/ Number tested (Male Hartley guinea pigs [4]): 0/6

Compound: NCC1CCC(N)C(OC2C(N)CC(N)C(OC3OC(CO)C(O)C(N)C3O)C2O)O1 (stereo not shown) [Dibekacin sulfate, dibekacin sulfate, reference compound]
- Percentage Survival (%) Dosage 0.0625 mg [5]: 0%
- Percentage Survival (%) Dosage 0.25 mg [5]: 30%
- Percentage Survival (%) Dosage 1 mg [5]: 100%
- ED50 [5]: 15.7 mg/kg
- Number of guinea pigs which lost pinna reflex 10days (Male Hartley guinea pigs [6]): 0/6
- Number of guinea pigs which lost pinna reflex 14days (Male Hartley guinea pigs [6]): 3/6
- Number of guinea pigs which lost pinna reflex 17days (Male Hartley guinea pigs [6]): 3/6
- Number of guinea pigs which lost pinna reflex 21days (Male Hartley guinea pigs [6]): 5/6*
- Number died/ Number tested (Male Hartley guinea pigs [6]): 1/6
- BUN (Male Hartley guinea pigs [6]): 41.8 ± 26.9 mg/dL

Compound: NCC1OC(OC2C(N)CC(N)C(OC3OC(CO)C(O)C(N)C3O)C2O)C(N)CC1O (stereo not shown) [Tobramycin sulfate, tobramycin sulfate]
- Pinna Reflex Dull (Male Hartley guinea pigs [1]; [12]): 2/9
- Pinna Reflex Normal (Male Hartley guinea pigs [1]; [12]): 7/9
- Number died/ Number tested (Male Hartley guinea pigs [1]; 120 mg (as a free base)/kg/day, 16 consecutive days): 0/9

Compound: Salt of gentamicin and D-glucaro-1,5-lactam [Glucarolactam salt of gentamicin]
- Pinna Reflex Dull (Male Hartley guinea pigs [7]): 2/6
- Pinna Reflex Normal (Male Hartley guinea pigs [7]): 3/6
- Pinna Reflex Lost (Male Hartley guinea pigs [7]; * including one guinea pig dead on the 21th day): 1/6
- solubility in ethanol, acetone, ethyl acetate and chloroform [2]: very slightly soluble
- solubility in methanol [2]: sparingly soluble
- solubility in water [2]: freely soluble
- pH of an aqueous solution of the salt [8]: 6.7
- CRE (Male Hartley guinea pigs [3]; 14 days): 1.20±0.51
- Number died/ Number tested (Male Hartley guinea pigs [3]; guinea pigs, intramuscular): 2/9
- Pinna Reflex Lost (Male Hartley guinea pigs [3]; [11]): 1/7
- Pinna Reflex Normal (Male Hartley guinea pigs [3]; [11]): 6/7
- BUN (Male Hartley guinea pigs [3]; 14 days): 64.6 ± 43.97 mg/dL
